Measured values published in patent publication EP0908457B1, “3-(1,2-benzisothiazol- and isoxazol-5-Y1)-2,4(1H,3H)-pyrimidinedione or thione and 3-(1,2-benzisothiazol- and isoxazol-5-y1)-4(3H)-pyrimidinone or thione herbicidal agents” (BASF AKTIENGESELLSCHAFT, priority 1997, dated 1999).

Assays:
Sagittaria pygmaea, L. = test: Preemergence weed control under flooded paddy conditions, SAGPY (Arrowhead (Pygmaea)); assay type: in vivo; conditions: preemergence, flooded paddy, rated three to four weeks after treatment; also: meaning of each grade not given here
Cyperus iria = test: Preemergence weed control under flooded paddy conditions, CYPIR (Rice Flatsedge); assay type: in vivo; conditions: preemergence, flooded paddy, rated three to four weeks after treatment; also: meaning of each grade not given here
[1] = test system: Oryza sativa, (L.) Tebonnet; test: Rice tolerance to post-transplant applications under flooded paddy conditions (Example 187), ORYSAT (Rice, Tebonnet); conditions: rated three to four weeks after treatment
[2] = test system: Monochoria vaginalis, Presl.; test: Preemergence weed control under flooded paddy conditions, MOOVA (Monochoria); assay type: in vivo; conditions: preemergence, flooded paddy, rated three to four weeks after treatment; also: meaning of each grade not given here
[3] = test system: Echinochloa oryzoides (Ard.) Fritsch.; test: Preemergence weed control under flooded paddy conditions, ECHORC (Watergrass (Calif.)); assay type: in vivo; conditions: preemergence, flooded paddy, rated three to four weeks after treatment; also: meaning of each grade not given here
[4] = test system: Cyperus serotinus, Rottb.; test: Preemergence weed control under flooded paddy conditions, CYPSE (Flatsedge); assay type: in vivo; conditions: preemergence, rated three to four weeks after treatment; also: meaning of each grade not given here

| Structure (SMILES) | herbicidal effect rating, SAGPY (Sagittaria pygmaea, L.; 0.0313 kg/ha) | herbicidal effect rating, SAGPY (Sagittaria pygmaea, L.; 0.0625 kg/ha) | herbicidal effect rating, SAGPY (Sagittaria pygmaea, L.; 0.1250 kg/ha) | herbicidal effect rating, SAGPY (Sagittaria pygmaea, L.; 0.2500 kg/ha) | herbicidal effect rating, CYPIR (Cyperus iria; 0.0313 kg/ha) | herbicidal effect rating, CYPIR (Cyperus iria; 0.0625 kg/ha) | herbicidal effect rating, CYPIR (Cyperus iria; 0.1250 kg/ha) | herbicidal effect rating, CYPIR (Cyperus iria; 0.2500 kg/ha) | herbicidal effect rating, ORYSAT (rice tolerance) ([1]; 0.0313 kg/ha) | herbicidal effect rating, ORYSAT (rice tolerance) ([1]; 0.0625 kg/ha) | herbicidal effect rating, ORYSAT (rice tolerance) ([1]; 0.1250 kg/ha) | herbicidal effect rating, ORYSAT (rice tolerance) ([1]; 0.2500 kg/ha) | herbicidal effect rating, MOOVA ([2]; 0.0313 kg/ha) | herbicidal effect rating, MOOVA ([2]; 0.0625 kg/ha) | herbicidal effect rating, MOOVA ([2]; 0.1250 kg/ha) | herbicidal effect rating, MOOVA ([2]; 0.2500 kg/ha) | herbicidal effect rating, ECHORC ([3]; 0.0313 kg/ha) | herbicidal effect rating, ECHORC ([3]; 0.0625 kg/ha) | herbicidal effect rating, ECHORC ([3]; 0.1250 kg/ha) | herbicidal effect rating, ECHORC ([3]; 0.2500 kg/ha) | further results |
| --- | --- | --- | --- | --- | --- | --- | --- | --- | --- | --- | --- | --- | --- | --- | --- | --- | --- | --- | --- | --- | --- |
| C=CCOc1ccc(C)cc1-c1nsc2ccc(-n3c(=O)cc(C(F)(F)F)n(C)c3=O)cc12 [Example 65, 3-{3-[6-(Allyloxy)-m-tolyl]-1,2-benzisothiazol-5-yl}-1-methyl-6-(trifluoromethyl)-2,4(1H,3H)-pyrimidinedione] | 0.0 | 0.0 | 0.0 | 0.0 | 0.0 | 0.0 | 0.0 | 0.0 | 0.0 | 0.0 | 0.0 | 0.0 | 0.0 | 0.0 | 0.0 | 0.0 | 0.0 | 0.0 | 0.0 | 0.0 | herbicidal effect rating, CYPSE ([4]; 0.0313 kg/ha): 0.0; herbicidal effect rating, CYPSE ([4]; 0.0625 kg/ha): 0.0; herbicidal effect rating, CYPSE ([4]; 0.1250 kg/ha): 0.0; herbicidal effect rating, CYPSE ([4]; 0.2500 kg/ha): 0.0 |
| Cc1ccc(OCC(=O)OC(C)(C)C)c(-c2nsc3ccc(-n4c(=O)cc(C(F)(F)F)n(C)c4=O)cc23)c1 [Example 68, tert -Butyl {{2-{5-[3,6-dihydro-3-methyl-2,6-dioxo-4-(trifluoromethyl)-1(2H)-pyrimidinyl]-1,2-benzisothiazol-3-yl}-p-tolyl}oxy}acetate] | 0.0 | 0.0 | 2.0 | 2.0 | 7.0 | 9.0 | 9.0 | 9.0 | 0.5 | 1.0 | 1.5 | 1.0 | 9.0 | 9.0 | 9.0 | 9.0 | 7.5 | 9.0 | 9.0 | 9.0 | herbicidal effect rating, CYPSE ([4]; 0.0313 kg/ha): 6.0; herbicidal effect rating, CYPSE ([4]; 0.0625 kg/ha): 7.0; herbicidal effect rating, CYPSE ([4]; 0.2500 kg/ha): 7.0 |
| C=CCOC(=O)COc1ccc(C)cc1-c1nsc2ccc(-n3c(=O)cc(C(F)(F)F)n(C)c3=O)cc12 [Example 69, Allyl {{2-{5-[3,6-dihydro-3-methyl-2,6-dioxo-4-(trifluoromethyl)-1(2H)-pyrimidinyl]-1,2-benzisothiazol-3-yl}-p-tolyl}oxy}acetate] | 0.0 | 0.0 | 2.0 | 9.0 | 0.0 | 2.0 | 4.0 | 7.0 | 3.5 | 5.0 | 6.5 | 8.0 | 9.0 | 9.0 | 9.0 | 9.0 | 9.0 | 9.0 | 9.0 | 9.0 | herbicidal effect rating, CYPSE ([4]; 0.0313 kg/ha): 0.0; herbicidal effect rating, CYPSE ([4]; 0.0625 kg/ha): 0.0; herbicidal effect rating, CYPSE ([4]; 0.1250 kg/ha): 2.0; herbicidal effect rating, CYPSE ([4]; 0.2500 kg/ha): 9.0 |
| Cc1ccc(OCC(=O)OCCN(C)C)c(-c2nsc3ccc(-n4c(=O)cc(C(F)(F)F)n(C)c4=O)cc23)c1 [Example 70, 2-(Dimethylamino)ethyl {{2-{5-[3,6-dihydro-3-methyl-2,6-dioxo-4-(trifluoromethyl)-1(2H)-pyrimidinyl]-1,2-benzisothiazol-3-yl}-p-tolyl}oxy}acetate] | 0.0 | 0.0 | 1.0 | 2.0 | 2.0 | 7.0 | 9.0 | 9.0 | 3.0 | 4.5 | 6.0 | 6.5 | 9.0 | 9.0 | 9.0 | 9.0 | 4.0 | 8.0 | 9.0 | 9.0 | herbicidal effect rating, CYPSE ([4]; 0.0313 kg/ha): 0.0; herbicidal effect rating, CYPSE ([4]; 0.0625 kg/ha): 0.0; herbicidal effect rating, CYPSE ([4]; 0.1250 kg/ha): 0.0; herbicidal effect rating, CYPSE ([4]; 0.2500 kg/ha): 0.0 |
| Cc1ccc(OCC(=O)OCCCl)c(-c2nsc3ccc(-n4c(=O)cc(C(F)(F)F)n(C)c4=O)cc23)c1 [Example 71, 2-Chloroethyl {{2-{5-[3,6-dihydro-3-methyl-2,6-dioxo-4-(trifluoromethyl)-1(2H)-pyrimidinyl]-1,2-benzisothiazol-3-yl}-p-tolyl}oxy}acetate] | 0.0 | 0.0 | 0.0 | 4.0 | 0.0 | 0.0 | 0.0 | 2.0 | 2.0 | 3.5 | 5.5 | 7.0 | 8.0 | 9.0 | 9.0 | 9.0 | 5.5 | 7.5 | 8.5 | 9.0 | herbicidal effect rating, CYPSE ([4]; 0.0313 kg/ha): 0.0; herbicidal effect rating, CYPSE ([4]; 0.0625 kg/ha): 0.0; herbicidal effect rating, CYPSE ([4]; 0.1250 kg/ha): 2.0; herbicidal effect rating, CYPSE ([4]; 0.2500 kg/ha): 9.0 |
